Assay results as given in US20060134100A1, “Dc-sign blockers and their use for preventing or treating viral infections” (priority 2002, published 2006).

Tested on: DEN-1 virus strain FGA/NA d1d
Type: cell-based
Details: THP/DC-SIGN cells, m.o.i. 5 AP61FFU/cell
Method: Prior to infection, THP-1/DC/SIGN cells were incubated with either Mab 9D12 (dilution 1:50), Mab BD12.5 (20 μg/ml), Mab 1B10.2.6 (20 μg/ml), EDTA (5 mM), mannan (20 μg/ml), or mock-treated (control). Treated cells were infected with DEN-1 virus strain FGA/NA dld (5 AP61FFU/cell) in the presence of reagents for 2 hrs. Viral antigens were detected by indirect immunofluorescence as described in the legend of FIG. 1. The percentages of infected cells 48 h post-infection are indicated. Values represent the mean of triplicate assays±SD.
Cells were washed once with RPMI 1640, incubated with highly purified virus in RPMI 1640 supplemented with 0.2% bovine serum albumine (BSA, pH 7.5) (Sigma) for 2 hrs at 37° C. and placed into fresh media supplemented with 2% FCS, 2 mM L-glutamine and antibiotics Peni/Strepto at 37° C. for 40 hrs.
Adherent cells were incubated either with EDTA (5 mM), mannan (20 μg/ml), anti-DC-SIGN Mab 1B10.2.6 (20 μg/mi), anti-LMCV Mab 12.5 (isotype control, 20 μg/ml), or DEN E-specific Mab 9D12 (dilution 1:50) in RPMI 1640 supplemented with 0.2% BSA for 20 min at room temperature before binding the virus for 2 hrs. Two hours after infection, cells were washed with RPMI 1640 and incubated with RMPI 1640 2% FCS for 40 hrs. […]

Molecule | reduction of FGA/NA d1d infectivity (mannan 20 μg/ml) [%] | infectivity of DEN-1 virus after preincubation of cells (EDTA 5 mM)
mannan | 75 | 
O=C(O)CN(CCN(CC(=O)O)CC(=O)O)CC(=O)O [EDTA] |  | essentially abolished
